Test results published in a compilation of properties of binary mixtures (doi:10.1016/j.fluid.2023.113736).

Assay: xn = mol fraction of the nth substance listed
Conditions: 100 kPa, x1 = 0.5

C[N+](CCO)(CCO)CCOCCO.[Cl-] + NC(N)=O
Conditions	viscosity [mPa·s]
283.15 K	45000
288.15 K	23200
293.15 K	12700
298.15 K	7350
303.15 K	4396
308.15 K	2744
313.15 K	1766
318.15 K	1172
323.15 K	794
333.15 K	400
338.15 K	295
